The text below walks through data of patent publication US8338422B2, “Indolin-2-ones and aza-indolin-2-ones” (Janssen Pharmaceutica NV, priority 2007, dated 2012).

The target of one experiment is PLK4 (h) (Homo sapiens, UniProt O00444). Nature of the experiment: PLK-4 human kinase assay (SPA). To be noted: read-out: PLK4 pIC50 (converted). The format is biochemical. In short, it runs like this: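 Radiometric readout: 33P-labelled peptide captured on streptavidin SPA beads after EDTA stop, imaged by Leadseeker. Reaction ran 60 min at room temperature in Hepes pH 8.0 buffer. It contained 1 μM ATP with 2 nM [γ-33P]ATP, 10 μM biotinylated peptide and PLK4 (h) at 19 μg/ml.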
Chain of PLK4 (h) (O00444 whole entry): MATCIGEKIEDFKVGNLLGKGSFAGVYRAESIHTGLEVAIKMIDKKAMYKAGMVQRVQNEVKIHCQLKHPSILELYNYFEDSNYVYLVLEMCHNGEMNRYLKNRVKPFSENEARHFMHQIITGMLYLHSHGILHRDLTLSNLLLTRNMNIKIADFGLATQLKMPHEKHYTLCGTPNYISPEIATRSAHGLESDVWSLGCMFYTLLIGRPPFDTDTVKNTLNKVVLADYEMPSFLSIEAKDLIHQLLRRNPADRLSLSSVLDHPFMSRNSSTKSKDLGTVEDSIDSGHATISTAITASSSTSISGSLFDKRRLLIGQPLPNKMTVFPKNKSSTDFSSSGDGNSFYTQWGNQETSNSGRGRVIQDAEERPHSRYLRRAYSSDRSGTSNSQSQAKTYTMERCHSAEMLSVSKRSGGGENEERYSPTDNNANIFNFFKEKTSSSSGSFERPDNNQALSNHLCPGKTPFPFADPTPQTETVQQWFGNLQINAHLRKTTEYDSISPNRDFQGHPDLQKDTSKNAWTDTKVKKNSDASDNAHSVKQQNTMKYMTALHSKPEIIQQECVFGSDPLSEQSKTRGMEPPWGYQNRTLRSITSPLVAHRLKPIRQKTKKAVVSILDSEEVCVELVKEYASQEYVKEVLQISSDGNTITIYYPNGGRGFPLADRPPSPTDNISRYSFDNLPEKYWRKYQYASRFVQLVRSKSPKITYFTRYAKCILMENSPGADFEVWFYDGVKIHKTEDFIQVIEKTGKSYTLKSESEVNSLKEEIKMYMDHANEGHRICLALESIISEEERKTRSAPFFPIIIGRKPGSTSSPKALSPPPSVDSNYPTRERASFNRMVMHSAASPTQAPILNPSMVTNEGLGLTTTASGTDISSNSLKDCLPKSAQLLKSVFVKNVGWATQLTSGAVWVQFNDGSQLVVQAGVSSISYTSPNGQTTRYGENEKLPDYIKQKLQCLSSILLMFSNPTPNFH

The target in the next experiment is AuroraB (h) (Homo sapiens, UniProt Q96GD4). Description: Aurora-B human kinase assay (SPA). It counts as biochemical. To be noted: read-out: AuroraB pIC50 (converted). In short, it runs like this:
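Scintillation proximity assay: AuroraB (h) at 0.5 μg/ml with 3 μM biotinylated peptide, 0.5 μM ATP and 2.2 nM [γ-33P]ATP in 60 mM Hepes pH 7.5, 3 mM MgCl2, 3 mM MnCl2, 2 mM DTT. 60 min at room temperature, EDTA stop, streptavidin PVT beads read on Leadseeker.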

The target of another experiment is GSK3β (h) (Homo sapiens, UniProt P49841). Description: GSK-3β human kinase assay (SPA). The format is biochemical. The settings on record: read-out: GSK3B pIC50 (converted). A digest of the protocol:
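Radiometric SPA read-out: after EDTA stop, biotinylated 33P-labelled peptide bound streptavidin PVT beads and was imaged on Leadseeker. Reaction: 60 min, room temperature, GSK3β (h) at 1 μg/ml, 1 μM substrate peptide, 1 μM ATP with 2 nM [γ-33P]ATP, Tris pH 7.4/MgCl2/DTT buffer.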

Another experiment has as its target CDK1/CyclinB (h) (Homo sapiens, UniProt P06493). Description: CDK1/CyclinB human kinase assay (FRET). The format is biochemical. To be noted: read-out: CDK1 pIC50 (converted). A digest of the protocol: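 Z'-LYTE FRET format: 0.2 μg/ml enzyme with 2 μM Ser/Thr peptide 12 and 10 μM ATP in 50 mM Hepes pH 7.5, 10 mM MgCl2, 1 mM EGTA, 0.01% Brij-35, 60 min at room temperature. Protease development 60 min; coumarin/fluorescein emission ratio (460/538 nm, excitation 390 nm) reports phosphorylation.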

The next experiment has as its system A2780. Description: Cellular proliferation assay (Alamar blue), A2780. The settings on record: Homo sapiens, A2780, 72 h, A2780 cells, 72 hours with compound, 10% FCS, read-out: pIC50 A2780 (converted). The format is cell-based. In short, it runs like this: (§1)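 Proliferation was assessed over 72 h of compound treatment, following 24 h of seeding without compound, under 10% FCS, 37° C. and 5% CO2. Fluorescent resazurin product was measured and compared with control cells.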
(In general: The colour change of resazurin is a common sign of viable cells or microbes.)

For another experiment, the system named is HCT-116. Description: Cellular proliferation assay (Alamar blue), HCT-116. The format is cell-based. To be noted: Homo sapiens, HCT-116, 72 h, HCT-116 cells, 72 hours with compound, 10% FCS, read-out: pIC50 HCT-116 (converted). In short, it runs like this: as §1
Another experiment has as its system H1299. Nature of the experiment: Cellular proliferation assay (Alamar blue), H1299. The format is cell-based. The settings on record: Homo sapiens, NCI-H1299, 72 h, H1299 cells, 72 hours with compound, 10% FCS, read-out: pIC50 H1299 (converted). In short, it runs like this:
as §1

The next experiment has as its system MDA/MB231. Description: Cellular proliferation assay (Alamar blue), MDA/MB231. The format is cell-based. To be noted: Homo sapiens, MDA-MB-231, 72 h, MDA/MB231 cells, 72 hours with compound, 10% FCS, read-out: pIC50 MDA/MB231 (converted). In short, it runs like this:
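Cells were grown in 10% FCS at 37° C. with 5% CO2, plated 24 h without compound, then exposed to compound for 72 h. Viability was measured by Alamar blue (resazurin 9 μg/ml) fluorescence at 544 nm/590 nm after 4 h (H460) or 24 h (MDA-MB-231) dye incubation, relative to control cells.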

The subject of another experiment is U87MG. Description: Cellular proliferation assay (Alamar blue), U87MG. The format is cell-based. To be noted: Homo sapiens, U-87 MG, 72 h, U87MG cells, 72 hours with compound, 10% FCS, read-out: pIC50 U87MG (converted). In short, it runs like this: as §1
The next experiment deals with PC-3. Nature of the experiment: Cellular proliferation assay (Alamar blue), PC-3. It counts as cell-based. To be noted: Homo sapiens, PC-3, 72 h, PC-3 cells, 72 hours with compound, 10% FCS, read-out: pIC50 PC-3 (converted). A digest of the protocol:
as §1

Chain of AuroraB (h) (Q96GD4 whole entry): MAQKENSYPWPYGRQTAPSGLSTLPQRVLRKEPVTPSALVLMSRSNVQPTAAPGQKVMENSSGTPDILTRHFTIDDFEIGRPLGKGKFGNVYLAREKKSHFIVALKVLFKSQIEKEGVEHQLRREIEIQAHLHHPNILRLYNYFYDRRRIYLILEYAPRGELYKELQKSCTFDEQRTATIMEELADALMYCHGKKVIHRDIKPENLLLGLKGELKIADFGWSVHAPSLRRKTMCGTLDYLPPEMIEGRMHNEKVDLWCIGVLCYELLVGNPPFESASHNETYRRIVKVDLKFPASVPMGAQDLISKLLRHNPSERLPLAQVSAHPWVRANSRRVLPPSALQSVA
Chain of GSK3β (h) (P49841 whole entry): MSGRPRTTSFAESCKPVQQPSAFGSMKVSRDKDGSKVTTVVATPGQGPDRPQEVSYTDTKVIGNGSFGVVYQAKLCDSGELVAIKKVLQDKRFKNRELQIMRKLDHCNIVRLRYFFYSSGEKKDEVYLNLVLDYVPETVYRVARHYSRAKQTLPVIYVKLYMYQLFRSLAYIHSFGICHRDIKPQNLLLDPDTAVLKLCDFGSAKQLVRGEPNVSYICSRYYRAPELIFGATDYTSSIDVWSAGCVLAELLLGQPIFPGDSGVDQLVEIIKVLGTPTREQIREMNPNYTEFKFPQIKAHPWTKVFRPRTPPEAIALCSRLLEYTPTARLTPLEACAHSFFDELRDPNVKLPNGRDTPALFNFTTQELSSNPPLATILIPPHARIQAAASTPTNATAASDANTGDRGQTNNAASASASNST
Chain of CDK1/CyclinB (h) (P06493 whole entry): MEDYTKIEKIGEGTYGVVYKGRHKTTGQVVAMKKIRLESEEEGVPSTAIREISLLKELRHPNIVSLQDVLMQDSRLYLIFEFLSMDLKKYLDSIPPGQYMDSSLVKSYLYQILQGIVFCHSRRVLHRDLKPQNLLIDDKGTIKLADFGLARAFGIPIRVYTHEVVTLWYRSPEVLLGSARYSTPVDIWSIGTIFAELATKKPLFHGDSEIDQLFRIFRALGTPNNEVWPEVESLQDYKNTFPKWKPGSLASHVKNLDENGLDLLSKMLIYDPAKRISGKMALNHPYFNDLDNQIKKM
Chain of CDK1/CyclinB (h) (P14635 whole entry partner): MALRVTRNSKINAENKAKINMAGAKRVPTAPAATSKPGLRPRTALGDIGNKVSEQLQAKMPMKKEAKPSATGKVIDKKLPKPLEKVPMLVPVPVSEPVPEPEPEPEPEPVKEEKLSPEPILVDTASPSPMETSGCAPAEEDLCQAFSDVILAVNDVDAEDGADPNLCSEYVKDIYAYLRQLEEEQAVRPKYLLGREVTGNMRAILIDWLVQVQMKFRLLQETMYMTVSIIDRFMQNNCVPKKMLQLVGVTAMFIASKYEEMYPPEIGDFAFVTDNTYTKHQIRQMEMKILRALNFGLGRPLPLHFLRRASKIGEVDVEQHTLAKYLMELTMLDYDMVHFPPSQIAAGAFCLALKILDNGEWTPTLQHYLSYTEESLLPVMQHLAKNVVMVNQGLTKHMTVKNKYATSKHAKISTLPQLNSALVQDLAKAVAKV

Regarding `CN1CCNC(=O)CCCCCCOc2cccc(c2)N/C=C2\C(=O)Nc3ncnc1c32` [Compound 36], the IC50 at PLK4 (h) is 2.24 µM; at AuroraB (h), above 10 µM; at GSK3β (h), 2 µM; at CDK1/CyclinB (h), above 10 µM; with A2780, above 10 µM; in the experiment with HCT-116, above 10 µM. Moreover, the IC50 in the experiment on H1299, in the experiment on MDA/MB231, with U87MG and in the experiment on PC-3 was above 10 µM in each case.
For the compound `COc1ccc2cc1OCCCCCC(=O)N(C)CCNc1ncnc3c1/C(=C/N2)C(=O)N3` [Compound 37], the IC50 is 0.55 µM at PLK4 (h); 0.214 µM on AuroraB (h); 0.0851 µM on GSK3β (h); 2.14 µM at CDK1/CyclinB (h); 7.59 µM with A2780; 6.03 µM in the experiment with HCT-116. Further, the IC50 in the experiment on H1299 is 3.16 µM; in the experiment with MDA/MB231, above 10 µM; in the experiment with U87MG, 1.82 µM; with PC-3, 9.55 µM.
Regarding `COc1ccc2cc1OCCCC(=O)NCCN(C)c1ncnc3c1/C(=C/N2)C(=O)N3` [Compound 38], the IC50 was 2.63 µM on PLK4 (h); above 10 µM on AuroraB (h); 3.63 µM on GSK3β (h); above 10 µM at CDK1/CyclinB (h); above 10 µM in the experiment on A2780; above 10 µM in the experiment with HCT-116. In addition, the IC50 with H1299, with MDA/MB231, in the experiment with U87MG and with PC-3 was above 10 µM each time.
Take `CN1CCNc2ncnc3c2/C(=C/Nc2cccc(c2)OCCCCCC1=O)C(=O)N3` [Compound 39]: the IC50 is 3.72 µM on PLK4 (h); 1.26 µM at AuroraB (h); 0.282 µM on GSK3β (h); 5.62 µM at CDK1/CyclinB (h); above 10 µM in the experiment with A2780; 3.8 µM in the experiment on HCT-116. The IC50 is above 10 µM in the experiment on H1299, above 10 µM with MDA/MB231, 7.94 µM in the experiment on U87MG and above 10 µM in the experiment with PC-3.
Regarding `CN1CCNC(=O)CCCOc2cccc(c2)N/C=C2\C(=O)Nc3ncnc1c32` [Compound 40], the IC50 was 4.9 µM on PLK4 (h); 8.32 µM at AuroraB (h); 1.51 µM at GSK3β (h); 7.08 µM on CDK1/CyclinB (h); above 10 µM in the experiment with A2780; above 10 µM with HCT-116. Moreover, the IC50 with H1299, with MDA/MB231, with U87MG and in the experiment on PC-3 was above 10 µM each time.
As to `CN1CCNC(=O)CCCCCOc2cccc(c2)N/C=C2\C(=O)Nc3ncnc1c32` [Compound 41], the IC50 is 1.78 µM at PLK4 (h); above 10 µM on AuroraB (h); 2.45 µM on GSK3β (h); 5.01 µM at CDK1/CyclinB (h); above 10 µM with A2780; above 10 µM in the experiment with HCT-116. Moreover, the IC50 in the experiment with H1299, in the experiment with MDA/MB231, in the experiment with U87MG and in the experiment with PC-3 was above 10 µM throughout.
As for `CN1CCNc2ncnc3c2/C(=C/Nc2cccc(c2)OCCCCC1=O)C(=O)N3` [Compound 42], the IC50 at PLK4 (h) was 1.7 µM; on AuroraB (h), 1.38 µM; at GSK3β (h), 0.295 µM; on CDK1/CyclinB (h), 5.89 µM; in the experiment with A2780, above 10 µM; with HCT-116, 2.19 µM. Moreover, the IC50 with H1299, with MDA/MB231, in the experiment on U87MG and with PC-3 was above 10 µM each time.
For `COc1ccc2cc1OCCCCC(=O)N(C)CCNc1ncnc3c1/C(=C/N2)C(=O)N3` [Compound 45], the IC50 at PLK4 (h) is 0.537 µM; on AuroraB (h) it was 0.24 µM; at GSK3β (h) it was 0.12 µM; at CDK1/CyclinB (h) it was 2.19 µM; in the experiment with A2780, above 10 µM; with HCT-116 it was 1.91 µM. Besides, the IC50 with H1299 is 2.82 µM; in the experiment on MDA/MB231 it was above 10 µM; with U87MG, 1.66 µM; in the experiment with PC-3, 9.12 µM.
Turning to `COc1ccc2cc1OCCCCCCC(=O)NCCN(C)c1ncnc3c1/C(=C/N2)C(=O)N3` [Compound 47], the IC50 was 2.29 µM on PLK4 (h); 8.71 µM at AuroraB (h); 4.79 µM on GSK3β (h); above 10 µM on CDK1/CyclinB (h); above 10 µM in the experiment with A2780; above 10 µM in the experiment on HCT-116. Moreover, the IC50 in the experiment with H1299, with MDA/MB231, in the experiment with U87MG and in the experiment on PC-3 was above 10 µM throughout.
Consider `COc1ccc2cc1CN(C)CCCCCC(=O)NCCN(C)c1ncnc3c1/C(=C/N2)C(=O)N3` [Compound 48], for which the IC50 at PLK4 (h), at AuroraB (h), at GSK3β (h), on CDK1/CyclinB (h), in the experiment on A2780 and in the experiment on HCT-116 was above 10 µM each time. For the same compound, the IC50 with H1299, in the experiment with MDA/MB231, in the experiment on U87MG and in the experiment with PC-3 was above 10 µM throughout.
`CN1CCNC(=O)CCCCCCOc2cc(ccc2Cl)N/C=C2\C(=O)Nc3ncnc1c32` [Compound 49]: the IC50 at PLK4 (h) was 7.41 µM; on AuroraB (h) it was above 10 µM; at GSK3β (h), above 10 µM; on CDK1/CyclinB (h), above 10 µM; with A2780 it was above 10 µM; in the experiment on HCT-116 it was above 10 µM. For the same compound, the IC50 with H1299, in the experiment with MDA/MB231, in the experiment with U87MG and in the experiment on PC-3 was above 10 µM each time.
With `COc1ccc2cc1CN(C)CCCCCCC(=O)NCCN(C)c1ncnc3c1/C(=C/N2)C(=O)N3` [Compound 50], the IC50 at PLK4 (h), on AuroraB (h), at GSK3β (h), on CDK1/CyclinB (h), in the experiment with A2780 and with HCT-116 was above 10 µM each time. For the same compound, the IC50 in the experiment on H1299, in the experiment on MDA/MB231, in the experiment on U87MG and in the experiment on PC-3 was above 10 µM throughout.
Turning to `COc1ccc2cc1CN(C)CCCCC(=O)NCCN(C)c1ncnc3c1/C(=C/N2)C(=O)N3` [Compound 51], the IC50 at PLK4 (h), on AuroraB (h), at GSK3β (h), at CDK1/CyclinB (h), in the experiment on A2780 and in the experiment with HCT-116 was above 10 µM in each case. Moreover, the IC50 in the experiment with H1299, in the experiment with MDA/MB231, in the experiment with U87MG and with PC-3 was above 10 µM each time.
Take `CN1CCNC(=O)CCCCCOc2cc(ccc2Cl)N/C=C2\C(=O)Nc3ncnc1c32` [Compound 52]: the IC50 on PLK4 (h) is 9.55 µM; at AuroraB (h), 6.61 µM; on GSK3β (h), 4.47 µM; at CDK1/CyclinB (h) it was above 10 µM; with A2780, above 10 µM; in the experiment on HCT-116, 1.95 µM. Also, the IC50 was above 10 µM in the experiment with H1299, above 10 µM with MDA/MB231, 7.24 µM with U87MG and above 10 µM in the experiment with PC-3.
Take `CN1CCCN(C)c2ncnc3c2/C(=C/Nc2cccc(c2)OCCCCCCC1=O)C(=O)N3` [Compound 53]: the IC50 at PLK4 (h) was 2.34 µM; at AuroraB (h), above 10 µM; on GSK3β (h), 0.794 µM; on CDK1/CyclinB (h) it was above 10 µM; with A2780, above 10 µM; with HCT-116, above 10 µM. Moreover, the IC50 in the experiment on H1299, in the experiment on MDA/MB231, in the experiment on U87MG and with PC-3 was above 10 µM throughout.
